We go through 74 molecules from paper PMC4821887, “Identification of chemicals that mimic transcriptional changes associated with autism, brain aging and neurodegeneration” (Nature Communications, 2016).

The subject of the series is mouse cortical neuron cultures.

Structures can show the parent of a compound that is named as a salt. Where two headings read alike, the source gives them in different places.

As for `COC(=O)N(C(=O)N1CO[C@@]2(C(=O)OC)Cc3cc(Cl)ccc3C2=N1)c1ccc(OC(F)(F)F)cc1` [Indoxacarb], the “% Dead cells (vehicle subtracted)” value (mouse, 24 h, 10 µM) came out at 0.6208%.
As for `COC(=O)c1ccc(I)cc1S(=O)(=O)[N-]C(=O)Nc1nc(C)nc(OC)n1.[Na+]` [Iodosulfuron-methyl-sodium], the “% Dead cells (vehicle subtracted)” value is on record as -4.352%.
Consider `CC(C)NC(=O)N1CC(=O)N(c2cc(Cl)cc(Cl)c2)C1=O` [Iprodione], for which the “% Dead cells (vehicle subtracted)” value (mouse, 24 h, 10 µM) stood at 8.376%.
Turning to `CCOP(=S)(OCC)Oc1nc(Cl)n(C(C)C)n1` [Isazofos], the “% Dead cells (vehicle subtracted)” value was -3.842%.
On to `CCC(C)(CC)c1cc(NC(=O)c2c(OC)cccc2OC)on1` [Isoxaben], for which the “% Dead cells (vehicle subtracted)” value (mouse, 24 h, 10 µM) is -1.274%.
With `CS(=O)(=O)c1cc(C(F)(F)F)ccc1C(=O)c1cnoc1C1CC1` [Isoxaflutole], the “% Dead cells (vehicle subtracted)” value (mouse, 24 h, 10 µM) is 2.416%.
`CCOC(=O)C(C)OC(=O)c1cc(Oc2ccc(C(F)(F)F)cc2Cl)ccc1[N+](=O)[O-]` (stereo not shown) [Lactofen]: the “% Dead cells (vehicle subtracted)” value (mouse, 24 h, 10 µM) is reported as -1.539%.
As for `Cl[C@H]1[C@H](Cl)[C@@H](Cl)[C@@H](Cl)[C@H](Cl)[C@H]1Cl` [Lindane], the “% Dead cells (vehicle subtracted)” value amounted to 3.537%.
On to `CON(C)C(=O)Nc1ccc(Cl)c(Cl)c1` [Linuron], for which the “% Dead cells (vehicle subtracted)” value is given as -0.9348%.
On to `Cc1cc(Cl)ccc1OCC(=O)O` [MCPA (Agroxone)], for which the “% Dead cells (vehicle subtracted)” value turned out to be 9.261%.
As to `CCOC(=O)CC(SP(=O)(OC)OC)C(=O)OCC` (stereo not shown) [Malaoxon], the “% Dead cells (vehicle subtracted)” value is -0.008689%.
On the same count and under the same terms, under `CCOC(=O)CC(SP(=S)(OC)OC)C(=O)OCC` (stereo not shown) [Malathion] stands -1.492%.
The same measure, in the same setting: with `O=c1ccc(=O)[nH][nH]1` [Maleic hydrazide] the figure was 7.215%; with `S=C([S-])NCCNC(=S)[S-].[Mn+2]` [Maneb], 6.097%; with `COC(=O)c1ccc(CNS(C)(=O)=O)cc1S(=O)(=O)NC(=O)Nc1nc(OC)cc(OC)n1` [Mesosulfuron methyl], -0.4756%.
With `CS(=O)(=O)c1ccc(C(=O)C2C(=O)CCCC2=O)c([N+](=O)[O-])c1` [Mesotrione], the “% Dead cells (vehicle subtracted)” value is 0.1871%.
On to `COCC(=O)N(c1c(C)cccc1C)C(C)C(=O)OC` (stereo not shown) [Metalaxyl], for which the “% Dead cells (vehicle subtracted)” value is recorded as 0.5361%.
On to `CNC(=S)[S-].O.O.[Na+]` [Metam-sodium hydrate], for which the “% Dead cells (vehicle subtracted)” value is on record as -1.491%.
On to `COP(N)(=O)SC` (stereo not shown) [Methamidophos], for which the “% Dead cells (vehicle subtracted)” value is -1.5388%.
For `Cc1ccc(C(=O)c2ccccc2)cc1` [Methanone (4-Methylbenzophenone)], the “% Dead cells (vehicle subtracted)” value amounted to 2.416%.
As to `COc1nn(CSP(=S)(OC)OC)c(=O)s1` [Methidathion], the “% Dead cells (vehicle subtracted)” value turned out to be 0.1761%.
On to `COc1ccc(C(c2ccc(OC)cc2)C(Cl)(Cl)Cl)cc1` [Methoxychlor], for which the “% Dead cells (vehicle subtracted)” value is recorded as -0.6222%.
In the case of `COc1cccc(C(=O)NN(C(=O)c2cc(C)cc(C)c2)C(C)(C)C)c1C` [Methoxyfenozide], the “% Dead cells (vehicle subtracted)” value was determined as 0.2717%.
As for `COCCO` [Methyl cellosolve], the “% Dead cells (vehicle subtracted)” value stood at 2.2057%.
As for `COC(=O)c1ccccc1C(=O)O` [Methyl hydrogen phthalate], the “% Dead cells (vehicle subtracted)” value amounted to 1.938%.
With `CCc1cccc(C)c1N(C(=O)CCl)C(C)COC` (stereo not shown) [Metolachlor], the “% Dead cells (vehicle subtracted)” value is on record as -3.586%.
As for `CSc1nnc(C(C)(C)C)c(=O)n1N` [Metribuzin], the “% Dead cells (vehicle subtracted)” value is -0.1172%.
Turning to `COc1nc(C)nc(NC(=O)NS(=O)(=O)c2ccccc2C(=O)O)n1` [Metsulfuron (Ally)], the “% Dead cells (vehicle subtracted)” value was determined as 1.078%.
On to `CCSC(=O)N1CCCCCC1` [Molinate], for which the “% Dead cells (vehicle subtracted)” value came to 7.609%.
Consider `CCCCC(C#N)(Cn1cncn1)c1ccc(Cl)cc1` (stereo not shown) [Myclobutanil], for which the “% Dead cells (vehicle subtracted)” value is -1.6229%.
With `COP(=O)(OC)OC(Br)C(Cl)(Cl)Br` (stereo not shown) [Naled], the “% Dead cells (vehicle subtracted)” value is given as -0.709%.
As to `CCN(CC)C(=O)C(C)Oc1cccc2ccccc12` (stereo not shown) [Napropamide], the “% Dead cells (vehicle subtracted)” value (mouse, 24 h, 10 µM) is -2.444%.
As to `Clc1cccc(C(Cl)(Cl)Cl)n1` [Nitrapyrin], the “% Dead cells (vehicle subtracted)” value (mouse, 24 h, 10 µM) came to 0.473%.
For `CNc1cnn(-c2cccc(C(F)(F)F)c2)c(=O)c1Cl` [Norflurazon], the “% Dead cells (vehicle subtracted)” value is -0.1097%.
As to `O=C(NC(=O)c1c(F)cccc1F)Nc1ccc(OC(F)(F)C(F)OC(F)(F)F)c(Cl)c1` (stereo not shown) [Novaluron], the “% Dead cells (vehicle subtracted)” value is on record as -1.142%.
In the case of `CC(C)Oc1cc(-n2nc(C(C)(C)C)oc2=O)c(Cl)cc1Cl` [Oxadiazon], the “% Dead cells (vehicle subtracted)” value (mouse, 24 h, 10 µM) stood at 5.6039%.
For the molecule `CNC(=O)O/N=C(\SC)C(=O)N(C)C` [Oxamyl], the “% Dead cells (vehicle subtracted)” value is -2.835%.
With `Cc1cc(C)nc(NC(=O)NS(=O)(=O)c2ccccc2C(=O)OC2COC2)n1` [Oxasulfuron (benzoic acid)], the “% Dead cells (vehicle subtracted)” value was -0.4775%.
Regarding `CCOc1cc(Oc2ccc(C(F)(F)F)cc2Cl)ccc1[N+](=O)[O-]` [Oxyfluorfen], the “% Dead cells (vehicle subtracted)” value is reported as -3.765%.
Consider `CN(C)[C@@H]1C(O)=C(C(N)=O)C(=O)[C@@]2(O)C(O)=C3C(=O)c4c(O)cccc4[C@@](C)(O)[C@H]3[C@H](O)[C@@H]12` [Oxytetracycline dihydrate], for which the “% Dead cells (vehicle subtracted)” value was -3.324% (mouse, 24 h, 0.1 µM); -0.5636% (mouse, 24 h, 1 µM); 21.6384% (mouse, 24 h, 10 µM).
On to `COP(=S)(OC)Oc1ccc([N+](=O)[O-])cc1` [Parathion-methyl], for which the “% Dead cells (vehicle subtracted)” value came out at 1.486%.
The same measure, in the same setting: under `CCOP(=S)(OCC)Oc1ccc([N+](=O)[O-])cc1` [Parathion] stands -1.193%; under `CCC(CC)Nc1c([N+](=O)[O-])cc(C)c(C)c1[N+](=O)[O-]` [Pendimethalin], 0.8617%.
Regarding `COc1cnc(OC)n2nc(NS(=O)(=O)c3c(OCC(F)F)cccc3C(F)(F)F)nc12` [Penoxsulam], the “% Dead cells (vehicle subtracted)” value (mouse, 24 h, 10 µM) was -0.3089%.
As to `O=S(=O)(O)C(F)(F)C(F)(F)C(F)(F)C(F)(F)C(F)(F)C(F)(F)C(F)(F)C(F)(F)F` [Perfluorooctane sulfonic acid], the “% Dead cells (vehicle subtracted)” value is reported as 6.21%.
Same read-out and setting: under `CC1(C)C(C=C(Cl)Cl)C1C(=O)OCc1cccc(Oc2ccccc2)c1` (stereo not shown) [Permethrin] stands -0.7739%; under `OCCOc1ccccc1` [Phenoxyethanol [2-Phenoxyethanol]], 4.907%.
Same read-out and setting: under `CCOP(=S)(OCC)SCn1c(=O)oc2cc(Cl)ccc21` [Phosalone] stands 3.318%; under `Nc1c(Cl)c(Cl)nc(C(=O)O)c1Cl` [Picloram], 3.752%.
As for `CCCCOCCOCCOCc1cc2c(cc1CCC)OCO2` [Piperonyl butoxide], under “mouse, 24 h, 10 µM”, the “% Dead cells (vehicle subtracted)” value is on record as -3.535%.
As to `Cc1nc(N(C)C)nc(OC(=O)N(C)C)c1C` [Pirimicarb], the “% Dead cells (vehicle subtracted)” value is -1.736%.
With `CCN(CC)c1nc(C)cc(OP(=S)(OC)OC)n1` [Pirimiphos-methyl], the “% Dead cells (vehicle subtracted)” value is -0.1826%.
On the same count and under the same terms, under `C#CCC1=C(C)C(OC(=O)C2C(C=C(C)C)C2(C)C)CC1=O` (stereo not shown) [Prallethrin] stands -0.1241%.
`CCCN(CCOc1c(Cl)cc(Cl)cc1Cl)C(=O)n1ccnc1` [Prochloraz]: the “% Dead cells (vehicle subtracted)” value was -2.048%.
On to `CCCN(CCC)c1c([N+](=O)[O-])cc(C(F)(F)F)c(N)c1[N+](=O)[O-]` [Prodiamine], for which the “% Dead cells (vehicle subtracted)” value is reported as -0.1982%.
Take `CCCSP(=O)(OCC)Oc1ccc(Br)cc1Cl` (stereo not shown) [Profenofos]: the “% Dead cells (vehicle subtracted)” value is recorded as -2.76%.
Consider `CSc1nc(NC(C)C)nc(NC(C)C)n1` [Prometryn], for which the “% Dead cells (vehicle subtracted)” value (mouse, 24 h, 10 µM) is reported as -5.322%.
Regarding `CCCOC(=O)NCCCN(C)C` [Propamocarb hydrochloride], the “% Dead cells (vehicle subtracted)” value is -1.887%.
For `CCC(=O)Nc1ccc(Cl)c(Cl)c1` [Propanil], the “% Dead cells (vehicle subtracted)” value is reported as -3.018%.
In the case of `CCNP(=S)(OC)O/C(C)=C/C(=O)OC(C)C` (stereo not shown) [Propetamphos], the “% Dead cells (vehicle subtracted)” value is given as -0.3061%.
Take `CCCC1COC(Cn2cncn2)(c2ccc(Cl)cc2Cl)O1` (stereo not shown) [Propiconazole]: the “% Dead cells (vehicle subtracted)” value is given as 0.7517%.
Turning to `CNC(=O)Oc1ccccc1OC(C)C` [Propoxur], the “% Dead cells (vehicle subtracted)” value was 0.5409%.
Consider `CCCOc1nn(C(=O)[N-]S(=O)(=O)c2ccccc2C(=O)OC)c(=O)n1C.[Na+]` [Propoxycarbazone-sodium], for which the “% Dead cells (vehicle subtracted)” value is on record as -1.764%.
For `C#CC(C)(C)NC(=O)c1cc(Cl)cc(Cl)c1` [Propyzamide], the “% Dead cells (vehicle subtracted)” value is listed as 1.57%.
Consider `CCOC(=O)COc1cc(-c2nn(C)c(OC(F)F)c2Cl)c(F)cc1Cl` [Pyraflufen-ethyl], for which the “% Dead cells (vehicle subtracted)” value is -2.144%.
On to `Cc1cc(C)nc(Nc2ccccc2)n1` [Pyrimethanil], for which the “% Dead cells (vehicle subtracted)” value (mouse, 24 h, 10 µM) is listed as -4.407%.
Consider `CC(COc1ccc(Oc2ccccc2)cc1)Oc1ccccn1` (stereo not shown) [Pyriproxyfen], for which the “% Dead cells (vehicle subtracted)” value (mouse, 24 h, 10 µM) is listed as 1.128%.
`COc1cc(OC)nc(Sc2cccc(Cl)c2C(=O)O)n1` [Pyrithiobac-sodium]: the “% Dead cells (vehicle subtracted)” value (mouse, 24 h, 10 µM) is given as 0.5188%.
For the molecule `O=C(O)c1c(Cl)ccc2cc(Cl)cnc12` [Quinclorac], the “% Dead cells (vehicle subtracted)” value is recorded as -1.41%.
For `O=[N+]([O-])c1c(Cl)c(Cl)c(Cl)c(Cl)c1Cl` [Quintozene], the “% Dead cells (vehicle subtracted)” value is on record as -2.206%.
Regarding `CCOC(=O)C(C)Oc1ccc(Oc2cnc3cc(Cl)ccc3n2)cc1` (stereo not shown) [Quizalofop-ethyl], the “% Dead cells (vehicle subtracted)” value (mouse, 24 h, 10 µM) is listed as -4.709%.
Take `CC(C)=CC1C(C(=O)OCc2coc(Cc3ccccc3)c2)C1(C)C` (stereo not shown) [Resmethrin]: the “% Dead cells (vehicle subtracted)” value stood at 1.827%.
`C=CCC1=C(C)[C@@H](OC(=O)[C@@H]2[C@@H](C=C(C)C)C2(C)C)CC1=O` [S-Bioallethrin]: the “% Dead cells (vehicle subtracted)” value is reported as -1.697%.
Same read-out and setting: with `CCC/C(=N\OCC)C1=C(O)CC(CC(C)SCC)CC1=O` (stereo not shown) [Sethoxydim] the figure was -0.798%.
